Where a name gives a salt, the structure may show the parent alone.
Molecular target: T1, His tagged PTPN2 (TC45) protein (Homo sapiens, UniProt P17706)
T1 construct: made in house
T1 sequence (P17706 with tags, fused parts or gaps isoform P17706-2): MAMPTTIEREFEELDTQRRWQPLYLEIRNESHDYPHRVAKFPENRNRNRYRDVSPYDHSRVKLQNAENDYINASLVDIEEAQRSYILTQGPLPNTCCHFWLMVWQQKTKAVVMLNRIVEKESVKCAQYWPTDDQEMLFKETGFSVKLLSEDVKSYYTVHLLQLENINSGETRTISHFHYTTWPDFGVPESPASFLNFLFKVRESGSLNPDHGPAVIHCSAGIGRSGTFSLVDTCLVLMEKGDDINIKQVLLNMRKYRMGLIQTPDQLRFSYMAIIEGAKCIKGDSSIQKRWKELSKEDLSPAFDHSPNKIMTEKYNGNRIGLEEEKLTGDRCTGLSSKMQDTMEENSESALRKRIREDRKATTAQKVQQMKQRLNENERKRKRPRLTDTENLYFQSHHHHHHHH
Test: Mobility shift assay (MSA) for potency of PTPN2 inhibitors
Assay type: biochemical
Conditions: read-out: PTPN2 MSA IC50
Experimental: Compound activity was determined using in house His tagged PTPN2 (TC45) protein (SEQ ID NO: 1) in an in vitro enzymatic reaction. The enzymatic assay used to determine activity was a mobility shift assay using a LabChip EZ Reader by Caliper Life Sciences. The enzymatic reaction was carried out in assay buffer (50 mM HEPES pH 7.5, 1 mM EGTA, 10 mM EDTA, 0.01% Tween® 20, and 2 mM DTT). The compounds were dispensed on a white 384 well ProxiPlate™ (PerkinElmer Catalog #6008289) plate using the Labcyte Echo at varying concentrations (12 point, 1:3 dilution). The enzyme (at 0.5 nM) was incubated with compound for 10 minutes at room temperature. Then the substrate (phosphorylated insulin receptor probe sequence: ((OG488)-(NH—CH2—CH2—O—CH2—CH2—O—CH2—CO)-T-R-D-I-(PY)-E-T-D-Y-Y-R-K-K-NH2) (SEQ ID NO: 2) was added at […] to the plates and incubated for another 10 minutes at room temperature. Finally, a quench solution (water and 4-bromo-3-(2-oxo-2-propoxyethoxy)-5-(3-{[1-(phenylmethanesulfonyl)piperidin-4-yl]amino}phenyl)thiophene-2-carboxylic acid) was added to the plates, which were then run on the EZ Reader (excitation 488 nm, emission 530 nm) to measure % conversion (the amount of phosphorylated substrate which was de-phosphorylated by PTPN2). […] The % inhibition was then used to calculate the IC50 values.

How did the IC50 turn out when C[C@@H](O)CCCc1ccc2cc(O)c(N3CC(=O)NS3(=O)=O)c(F)c2c1 [Compound 151, 5-{1-fluoro-3-hydroxy-7-[(4R)-4-hydroxypentyl]naphthalen-2-yl}-1λ^6,2,5-thiadiazolidine-1,1,3-trione] was run?
Its IC50 is 1 to 10 nM.

Which IC50 does the source give for C[C@H](O)CCCc1ccc2cc(O)c(N3CC(=O)NS3(=O)=O)c(F)c2c1 [Compound 153, 5-{1-fluoro-3-hydroxy-7-[(4S)-4-hydroxypentyl]naphthalen-2-yl}-1λ^6,2,5-thiadiazolidine-1,1,3-trione] here?
The IC50 was 1 to 10 nM.

Which IC50 does the source give for COCC1(CCOc2ccc3cc(O)c(N4CC(=O)NS4(=O)=O)c(F)c3c2)CC1 [Compound 160, 5-(1-fluoro-3-hydroxy-7-{2-[1-(methoxymethyl)cyclopropyl]ethoxy}naphthalen-2-yl)-1λ^6,2,5-thiadiazolidine-1,1,3-trione] here?
The IC50 was 1 to 10 nM.

With O=C1CN(c2c(O)cc3ccc(CNCC4CC4)cc3c2F)S(=O)(=O)N1 [Compound 161, 5-(7-{[(cyclopropylmethyl)amino]methyl}-1-fluoro-3-hydroxynaphthalen-2-yl)-1λ^6,2,5-thiadiazolidine-1,1,3-trione] as the compound, how does the IC50 read?
Its IC50 is 10 to 100 nM.

How did the IC50 turn out when CC(C)OCCNc1ccc2cc(O)c(N3CC(=O)NS3(=O)=O)c(F)c2c1 [Compound 172, 5-[1-fluoro-3-hydroxy-7-({2-[(propan-2-yl)oxy]ethyl}amino)naphthalen-2-yl]-1λ^6,2,5-thiadiazolidine-1,1,3-trione] was run?
Its IC50 is 1 to 10 nM.

With O=C1CN(c2c(O)cc3ccc(CCO)cc3c2F)S(=O)(=O)N1 [Compound 175, 5-[1-fluoro-3-hydroxy-7-(2-hydroxyethyl)naphthalen-2-yl]-1λ^6,2,5-thiadiazolidine-1,1,3-trione, Ammonium Salt] as the compound, how does the IC50 read?
The IC50 was 10 to 100 nM.

How did the IC50 turn out when O=C1CN(c2c(O)cc3ccc(OCCCn4cccn4)cc3c2F)S(=O)(=O)N1 [Compound 183, 5-{1-fluoro-3-hydroxy-7-[3-(H-pyrazol-1-yl)propoxy]naphthalen-2-yl}-1λ^6,2,5-thiadiazolidine-1,1,3-trione] was run?
Its IC50 is 1 to 10 nM.

With O=C1CN(c2c(O)cc3ccc(CO)cc3c2F)S(=O)(=O)N1 [Compound 185, 5-[1-fluoro-3-hydroxy-7-(hydroxymethyl)naphthalen-2-yl]-1λ^6,2,5-thiadiazolidine-1,1,3-trione] as the compound, how does the IC50 read?
The IC50 was 1 to 10 nM.

O=C1CN(c2c(O)cc3ccc(OCCn4cccn4)cc3c2F)S(=O)(=O)N1 [Compound 188, 5-{1-fluoro-3-hydroxy-7-[2-(1H-pyrazol-1-yl)ethoxy]naphthalen-2-yl}-1λ^6,2,5-thiadiazolidine-1,1,3-trione] was tested. Which IC50 did it give?
The IC50 was 1 to 10 nM.

O=C1CN(c2c(O)cc3ccc(C4CCCO4)cc3c2F)S(=O)(=O)N1 (stereo not drawn) [Compound 190] was tested. Which IC50 did it give?
The IC50 was 1 to 10 nM.

How did the IC50 turn out when O=C1CN(c2c(O)cc3ccc(C4CCCNC4)cc3c2F)S(=O)(=O)N1 (stereo not drawn) [Compound 191, 5-[1-fluoro-3-hydroxy-7-(piperidin-3-yl)naphthalen-2-yl]-1λ^6,2,5-thiadiazolidine-1,1,3-trione] was run?
The IC50 was 1 to 10 nM.

Nc1cccc(CS(=O)(=O)N2CC=C(c3ccc4cc(O)c(N5CC(=O)NS5(=O)=O)c(F)c4c3)C2)c1 [Compound 194, 5-(7-{1-[(3-aminophenyl)methanesulfonyl]-2,5-dihydro-1H-pyrrol-3-yl}-1-fluoro-3-hydroxynaphthalen-2-yl)-1λ^6,2,5-thiadiazolidine-1,1,3-trione] was tested. Which IC50 did it give?
The IC50 was under 1 nM.

Which IC50 does the source give for O=C1CN(c2c(O)cc3ccc(CC(F)F)cc3c2F)S(=O)(=O)N1 [Compound 196, 5-[7-(2,2-difluoroethyl)-1-fluoro-3-hydroxynaphthalen-2-yl]-1λ^6,2,5-thiadiazolidine-1,1,3-trione] here?
Its IC50 is 1 to 10 nM.

How did the IC50 turn out when O=C1CN(c2c(O)cc3ccc(OCC(F)(F)F)cc3c2F)S(=O)(=O)N1 [Compound 197, 5-[1-fluoro-3-hydroxy-7-(2,2,2-trifluoroethoxy)naphthalen-2-yl]-1λ^6,2,5-thiadiazolidine-1,1,3-trione] was run?
The IC50 was 1 to 10 nM.

Which IC50 does the source give for O=C1CN(c2c(O)cc3ccc(NCC4CC4)cc3c2F)S(=O)(=O)N1 [Compound 202, 5-{7-[(cyclopropylmethyl)amino]-1-fluoro-3-hydroxynaphthalen-2-yl}-1λ^6,2,5-thiadiazolidine-1,1,3-trione] here?
The IC50 was 1 to 10 nM.

How did the IC50 turn out when CC(C)CCCc1ccc2cc(O)c(N3CC(=O)NS3(=O)=O)c(F)c2c1 [Compound 219, 5-[1-fluoro-3-hydroxy-7-(4-methylpentyl)naphthalen-2-yl]-1λ^6,2,5-thiadiazolidine-1,1,3-trione] was run?
The IC50 was 1 to 10 nM.

For Cc1c[nH]c(-c2ccc3cc(O)c(N4CC(=O)NS4(=O)=O)c(F)c3c2)n1 [Compound 225, 5-[1-fluoro-3-hydroxy-7-(4-methyl-1H-imidazol-2-yl)naphthalen-2-yl]-1λ^6,2,5-thiadiazolidine-1,1,3-trione], which IC50 is on record?
Its IC50 is 10 to 100 nM.

N#CCc1ccc2cc(O)c(N3CC(=O)NS3(=O)=O)c(F)c2c1 [Compound 228, [8-fluoro-6-hydroxy-7-(1,1,4-trioxo-1λ^6,2,5-thiadiazolidin-2-yl)naphthalen-2-yl]acetonitrile] was tested. Which IC50 did it give?
The IC50 was 1 to 10 nM.

For COCc1ccc2cc(O)c(N3CC(=O)NS3(=O)=O)c(F)c2c1 [Compound 229, 5-[1-fluoro-3-hydroxy-7-(methoxymethyl)naphthalen-2-yl]-1λ^6,2,5-thiadiazolidine-1,1,3-trione], which IC50 is on record?
Its IC50 is 10 to 100 nM.

Which IC50 does the source give for CC1(COc2ccc3cc(O)c(N4CC(=O)NS4(=O)=O)c(F)c3c2)COC1 [Compound 230, 5-{1-fluoro-3-hydroxy-7-[(3-methyloxetan-3-yl)methoxy]naphthalen-2-yl}-1λ^6,2,5-thiadiazolidine-1,1,3-trione] here?
The IC50 was 1 to 10 nM.

O=C1CN(c2c(O)c(Br)c3ccc(C4=CCN(S(=O)(=O)C5CC5)C4)cc3c2F)S(=O)(=O)N1 [Compound 231A, 5-{4-bromo-7-[1-(cyclopropanesulfonyl)-2,5-dihydro-1H-pyrrol-3-yl]-1-fluoro-3-hydroxynaphthalen-2-yl}-1λ^6,2,5-thiadiazolidine-1,1,3-trione] was tested. Which IC50 did it give?
Its IC50 is 1 to 10 nM.

Which IC50 does the source give for O=C1CN(c2c(O)c(Br)c3ccc(-c4ccn(S(=O)(=O)C5CC5)c4)cc3c2F)S(=O)(=O)N1 [Compound 231B, 5-{4-bromo-7-[1-(cyclopropanesulfonyl)-1H-pyrrol-3-yl]-1-fluoro-3-hydroxynaphthalen-2-yl}-1λ^6,2,5-thiadiazolidine-1,1,3-trione] here?
The IC50 was 1 to 10 nM.

How did the IC50 turn out when COc1ccc2cc(O)c(N3CC(=O)NS3(=O)=O)c(F)c2c1Cl [Compound 234, 5-(8-chloro-1-fluoro-3-hydroxy-7-methoxynaphthalen-2-yl)-1λ^6,2,5-thiadiazolidine-1,1,3-trione] was run?
Its IC50 is 10 to 100 nM.

O=C1CN(c2c(O)cc3ccc(C4CC4)cc3c2F)S(=O)(=O)N1 [Compound 236, 5-(7-cyclopropyl-1-fluoro-3-hydroxynaphthalen-2-yl)-1λ^6,2,5-thiadiazolidine-1,1,3-trione] was tested. Which IC50 did it give?
The IC50 was 1 to 10 nM.

Which IC50 does the source give for C=C(c1ccc2cc(O)c(N3CC(=O)NS3(=O)=O)c(F)c2c1)c1c(C)c(C)c(C)c(C)c1C [Compound 241, 5-{1-fluoro-3-hydroxy-7-[1-(pentamethylphenyl)ethenyl]naphthalen-2-yl}-1λ^6,2,5-thiadiazolidine-1,1,3-trione] here?
The IC50 was over 100 nM.

How did the IC50 turn out when O=C1CN(c2c(O)cc3ccc(CC4CCN(CC(F)(F)F)C4)cc3c2F)S(=O)(=O)N1 (stereo not drawn) [Compound 251, 5-(1-fluoro-3-hydroxy-7-{[1-(2,2,2-trifluoroethyl)pyrrolidin-3-yl]methyl}naphthalen-2-yl)-1λ^6,2,5-thiadiazolidine-1,1,3-trione] was run?
Its IC50 is 1 to 10 nM.

How did the IC50 turn out when CC(C)CN(C)CCOc1ccc2cc(O)c(N3CC(=O)NS3(=O)=O)c(F)c2c1 [Compound 253, 5-(1-fluoro-3-hydroxy-7-{2-[methyl(2-methylpropyl)amino]ethoxy}naphthalen-2-yl)-1λ^6,2,5-thiadiazolidine-1,1,3-trione] was run?
Its IC50 is 1 to 10 nM.

Which IC50 does the source give for O=C1CN(c2c(O)cc3ccc(C4=CCNC4)cc3c2F)S(=O)(=O)N1 [Compound 265, 5-[7-(2,5-dihydro-1H-pyrrol-3-yl)-1-fluoro-3-hydroxynaphthalen-2-yl]-1λ^6,2,5-thiadiazolidine-1,1,3-trione] here?
The IC50 was 1 to 10 nM.

With O=C1CN(c2c(O)cc3ccc(-c4cccnc4)cc3c2F)S(=O)(=O)N1 [Compound 266, 5-[1-fluoro-3-hydroxy-7-(pyridin-3-yl)naphthalen-2-yl]-1λ^6,2,5-thiadiazolidine-1,1,3-trione] as the compound, how does the IC50 read?
The IC50 was 1 to 10 nM.

Which IC50 does the source give for O=C1CN(c2c(O)cc3ccc(CC4CNC4)cc3c2F)S(=O)(=O)N1 [Compound 267, 5-{7-[(azetidin-3-yl)methyl]-1-fluoro-3-hydroxynaphthalen-2-yl}-1λ^6,2,5-thiadiazolidine-1,1,3-trione] here?
Its IC50 is 10 to 100 nM.
